Test results from the supplement of paper PMC10307832.

Assays:
Test in all cases: relative viability (nuclei count vs DMSO), 5 days (fraction); higher = more cells survive
[1] = compound: CC[C@@H]1C(=O)N(C)c2cnc(Nc3ccc(C(=O)NC4CCN(C)CC4)cc3OC)nc2N1C1CCCC1 [BI-2536] + Cc1nc(NC(=O)N2CCC[C@H]2C(N)=O)sc1-c1ccnc(C(C)(C)C(F)(F)F)c1 [Alpelisib] (partner 2 µM)
Procedure, shortened: (§1)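 A single step with final 0.05% Triton X-100, 1% formaldehyde and 1 ug/ml Hoechst fixed the cells and stained nuclei 5 days after treatment. Lung cancer cell lines in 1536-well plates had been treated by pin tool the day after seeding with one drug alone or a fixed anchor-drug dose plus five library-drug doses (not always all listed) in √10 steps, and nuclei were counted on 4× images. Relative viability is the ratio of nuclei in treated wells to nuclei in vehicle wells, taken as the median of duplicate plates.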

[2] = compound: CC[C@@H]1C(=O)N(C)c2cnc(Nc3ccc(C(=O)NC4CCN(C)CC4)cc3OC)nc2N1C1CCCC1 [BI-2536] + C[C@]1(O)C[C@@H](c2nc(-c3ccc4ccc(-c5ccccc5)nc4c3)c3c(N)nccn32)C1 [Linsitinib] (partner 1 µM)
Procedure, shortened: as §1

[3] = compound: CC[C@@H]1C(=O)N(C)c2cnc(Nc3ccc(C(=O)NC4CCN(C)CC4)cc3OC)nc2N1C1CCCC1 [BI-2536] + COc1cccc2cc(-c3nc([C@H]4CC[C@H](C(=O)O)CC4)n4ncnc(N)c34)[nH]c12 [OSI-027] (partner 0.5 µM)
Procedure, shortened: as §1

[4] = compound: CC[C@@H]1C(=O)N(C)c2cnc(Nc3ccc(C(=O)NC4CCN(C)CC4)cc3OC)nc2N1C1CCCC1 [BI-2536] + O=C(CCCCCCC(=O)Nc1ccccc1)NO [Vorinostat] (partner 1 µM)
Procedure, shortened: as §1

Cell Line | relative viability ([1]; first compound 0.01 µM) | relative viability ([1]; first compound 0.03162 µM) | relative viability ([1]; first compound 0.1 µM) | relative viability ([1]; first compound 0.3162 µM) | relative viability ([1]; first compound 1 µM) | relative viability ([2]; first compound 0.01 µM) | relative viability ([2]; first compound 0.03162 µM) | relative viability ([2]; first compound 0.1 µM) | relative viability ([2]; first compound 0.3162 µM) | relative viability ([2]; first compound 1 µM) | relative viability ([3]; first compound 0.01 µM) | relative viability ([3]; first compound 0.03162 µM) | relative viability ([3]; first compound 0.1 µM) | relative viability ([3]; first compound 0.3162 µM) | relative viability ([3]; first compound 1 µM) | relative viability ([4]; first compound 0.01 µM) | relative viability ([4]; first compound 0.03162 µM) | relative viability ([4]; first compound 0.1 µM) | relative viability ([4]; first compound 0.3162 µM) | relative viability ([4]; first compound 1 µM)
NCI-H1975 | 0.654 | 0.479 | 0.351 | 0.148 | 0.173 | 0.948 | 0.861 | 1.03 | 0.192 | 0.147 | 0.628 | 0.623 | 0.515 | 0.125 | 0.107 | 0.727 | 0.593 | 0.326 | 0.181 | 0.158
NCI-H1651 | 0.93 | 0.828 | 0.558 | 0.0805 | 0.0804 | 0.976 | 1.01 | 0.878 | 0.119 | 0.0863 | 0.686 | 0.758 | 0.272 | 0.0807 | 0.0995 | 0.492 | 0.553 | 0.328 | 0.123 | 0.0939
NCI-H441 | 0.613 | 0.235 | 0.148 | 0.168 | 0.178 | 0.521 | 0.575 | 0.321 | 0.126 | 0.133 | 0.449 | 0.42 | 0.222 | 0.226 | 0.266 | 0.668 | 0.601 | 0.263 | 0.212 | 0.178
LCLC-103H | 1.05 | 0.925 | 0.929 | 0.556 | 0.125 | 1.16 | 1.04 | 1.05 | 0.942 | 0.143 | 0.462 | 0.466 | 0.485 | 0.215 | 0.155 | 0.767 | 0.776 | 0.265 | 0.168 | 0.239
LCLC-97TM1 | 0.197 | 0.219 | 0.214 | 0.129 | 0.141 | 0.157 | 0.239 | 0.168 | 0.143 | 0.113 | 0.575 | 0.538 | 0.434 | 0.138 | 0.167 | 0.721 | 0.787 | 0.0652 | 0.078 | 0.0571
NCI-H727 | 0.616 | 0.636 | 0.453 | 0.245 | 0.238 | 0.416 | 0.268 | 0.281 | 0.282 | 0.211 | 0.597 | 0.471 | 0.499 | 0.334 | 0.338 | 1.12 | 1.11 | 0.797 | 0.513 | 0.4
NCI-H1355 | 0.701 | 0.797 | 0.753 | 0.226 | 0.17 | 0.877 | 0.889 | 0.856 | 0.227 | 0.178 | 0.421 | 0.389 | 0.206 | 0.176 | 0.189 | 0.584 | 0.66 | 0.37 | 0.171 | 0.152
HOP-62 | 1.04 | 1.06 | 0.922 | 0.176 | 0.104 | 0.89 | 1 | 0.914 | 0.135 | 0.142 | 0.803 | 0.724 | 0.526 | 0.268 | 0.181 | 0.528 | 0.74 | 0.188 | 0.104 | 0.13
NCI-H2085 | 1.01 | 0.863 | 0.601 | 0.234 | 0.307 | 0.958 | 0.919 | 0.831 | 0.267 | 0.329 | 0.833 | 0.602 | 0.282 | 0.153 | 0.272 | 0.855 | 0.77 | 0.469 | 0.231 | 0.304
